Measured values reported in patent USRE50528E1, “Compounds and compositions for modulating EGFR mutant kinase activities” (Yuhan Corporation, priority 2014, dated 2025).
pIC50: −log10 of the molar value.

Legend:
EGFR mutant T790M = target: T1, EGFR mutant T790M (Homo sapiens, UniProt P00533, T790M); assay: Kinase inhibition assay, EGFR mutant T790M; conditions: biochemical potency;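 also: truncated human EGFR mutant enzyme preincubated two hours with compound, then ATP plus ULight-PolyGT peptide for one hour, Europium-labeled antibody LANCE detection, IC50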
T1 construct: truncated human JAK3, EGFR mutants such as del E746-A750; purchased Carna Biosciences
T1 sequence (P00533 669-1210 T790M limits assumed): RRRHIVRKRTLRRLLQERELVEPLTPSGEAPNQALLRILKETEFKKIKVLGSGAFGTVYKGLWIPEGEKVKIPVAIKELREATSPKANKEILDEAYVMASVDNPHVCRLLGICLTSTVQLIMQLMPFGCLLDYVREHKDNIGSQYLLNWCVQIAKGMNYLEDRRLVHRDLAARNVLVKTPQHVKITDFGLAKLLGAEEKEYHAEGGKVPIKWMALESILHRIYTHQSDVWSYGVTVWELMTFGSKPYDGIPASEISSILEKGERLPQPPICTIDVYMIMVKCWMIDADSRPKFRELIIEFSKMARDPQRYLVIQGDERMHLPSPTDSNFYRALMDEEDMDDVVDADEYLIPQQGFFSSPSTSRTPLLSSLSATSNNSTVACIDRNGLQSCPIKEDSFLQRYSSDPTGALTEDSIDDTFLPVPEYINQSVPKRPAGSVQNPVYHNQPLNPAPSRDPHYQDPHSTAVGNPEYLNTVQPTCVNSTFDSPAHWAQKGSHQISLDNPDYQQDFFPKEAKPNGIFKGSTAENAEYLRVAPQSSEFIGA

[1] = target: T2, EGFR mutant Del19 (E746-A750) (Homo sapiens, UniProt P00533, DEL746-750); assay: Kinase inhibition assay, EGFR del E746-A750; format: biochemical; conditions: read-out: EGFR mutants Del19 (E746-A750);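 also: truncated human EGFR mutant kinase, two-hour preincubation with compound, then one-hour reaction with ATP and ULight-PolyGT peptide, LANCE Europium-antibody phosphorylation readout, IC50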
T2 construct: truncated human JAK3, EGFR mutants such as del E746-A750; purchased Carna Biosciences
T2 sequence (P00533 with tags, fused parts or gaps DEL746-750 limits assumed): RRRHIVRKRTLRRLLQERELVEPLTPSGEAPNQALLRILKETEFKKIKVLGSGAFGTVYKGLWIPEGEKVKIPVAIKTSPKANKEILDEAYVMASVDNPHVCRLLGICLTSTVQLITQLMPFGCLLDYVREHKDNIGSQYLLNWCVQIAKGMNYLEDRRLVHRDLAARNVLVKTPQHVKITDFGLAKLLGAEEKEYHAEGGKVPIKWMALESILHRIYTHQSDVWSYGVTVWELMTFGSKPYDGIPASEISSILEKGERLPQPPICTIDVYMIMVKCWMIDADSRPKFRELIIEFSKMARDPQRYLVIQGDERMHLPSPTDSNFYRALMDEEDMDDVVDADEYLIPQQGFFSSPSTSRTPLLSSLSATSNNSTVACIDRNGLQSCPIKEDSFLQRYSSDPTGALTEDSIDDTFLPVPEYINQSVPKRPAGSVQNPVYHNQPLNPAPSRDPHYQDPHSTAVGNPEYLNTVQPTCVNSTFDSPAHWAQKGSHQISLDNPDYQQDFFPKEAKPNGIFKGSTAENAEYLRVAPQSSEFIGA

EGFR mutant L858R = target: T3, EGFR mutant L858R (Homo sapiens, UniProt P00533, L858R); assay: Kinase inhibition assay, EGFR L858R; format: biochemical; conditions: read-out: EGFR mutants L858R;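 also: truncated human EGFR L858R kinase with compound preincubation, ULight-PolyGT peptide phosphorylation read by Europium-antibody Lance detection, IC50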
T3 construct: truncated human JAK3, EGFR mutants such as del E746-A750; purchased Carna Biosciences
T3 sequence (P00533 669-1210 L858R limits assumed): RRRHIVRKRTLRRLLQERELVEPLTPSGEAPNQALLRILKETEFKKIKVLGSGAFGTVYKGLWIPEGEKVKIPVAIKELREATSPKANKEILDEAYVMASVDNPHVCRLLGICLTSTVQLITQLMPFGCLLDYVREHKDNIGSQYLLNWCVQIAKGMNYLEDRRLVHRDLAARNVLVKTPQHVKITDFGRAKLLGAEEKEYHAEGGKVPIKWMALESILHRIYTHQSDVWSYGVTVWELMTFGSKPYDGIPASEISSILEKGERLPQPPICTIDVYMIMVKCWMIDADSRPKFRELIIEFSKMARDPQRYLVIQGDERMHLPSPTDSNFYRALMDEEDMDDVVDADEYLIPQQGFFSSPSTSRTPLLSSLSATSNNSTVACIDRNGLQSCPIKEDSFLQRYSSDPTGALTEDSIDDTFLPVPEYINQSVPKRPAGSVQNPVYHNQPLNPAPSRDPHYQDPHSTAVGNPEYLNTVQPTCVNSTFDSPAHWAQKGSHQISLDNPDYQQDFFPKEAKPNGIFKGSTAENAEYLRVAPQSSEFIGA

EGFR mutant Del19/T790M = target: T4, EGFR mutant Del19/T790M (Homo sapiens, UniProt P00533, DEL746-750/T790M); assay: Kinase inhibition assay, EGFR del E746-A750/T790M; format: biochemical; conditions: read-out: EGFR mutants Del19/T790M
T4 construct: truncated human JAK3, EGFR mutants such as del E746-A750; purchased Carna Biosciences
T4 sequence (P00533 with tags, fused parts or gaps DEL746-750/T790M limits assumed): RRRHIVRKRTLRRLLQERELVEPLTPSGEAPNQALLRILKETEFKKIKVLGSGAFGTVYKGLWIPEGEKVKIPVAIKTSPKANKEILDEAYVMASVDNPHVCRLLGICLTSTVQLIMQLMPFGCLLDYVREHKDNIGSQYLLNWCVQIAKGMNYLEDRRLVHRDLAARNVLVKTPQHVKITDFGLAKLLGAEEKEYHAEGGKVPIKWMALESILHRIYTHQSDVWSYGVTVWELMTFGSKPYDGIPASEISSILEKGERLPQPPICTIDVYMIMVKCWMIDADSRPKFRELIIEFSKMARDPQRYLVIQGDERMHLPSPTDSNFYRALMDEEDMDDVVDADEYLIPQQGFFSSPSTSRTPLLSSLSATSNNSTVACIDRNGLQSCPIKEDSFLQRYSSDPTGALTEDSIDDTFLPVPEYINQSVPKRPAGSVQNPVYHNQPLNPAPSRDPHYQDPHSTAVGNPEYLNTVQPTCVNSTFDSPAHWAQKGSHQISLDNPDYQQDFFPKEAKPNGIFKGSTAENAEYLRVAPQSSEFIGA

SYK = target: T5, SYK (Homo sapiens, UniProt P43405); assay: Kinase inhibition assay, SYK; format: biochemical; conditions: biochemical potency;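 also: purified full-length human SYK pre-incubated 30 min with compound, then ULight-TK peptide phosphorylation for 1 h, detected with Europium-labeled antibody in Lance buffer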
T5 construct: Purified human, full-length SYK, KDR; purchased Carna Biosciences

JAK3 = target: T6, JAK3 (Homo sapiens, UniProt P52333); assay: Kinase inhibition assay, JAK3; conditions: biochemical potency;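 also: IC50 against purified truncated human JAK3 preincubated with compound, then reacted with ATP and ULight-Jak1 peptide, phosphorylation read by Europium-labeled antibody LANCE detection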
T6 construct: EGFR and JAK3 (JH1domain-catalytic) kinases, and mutant forms thereof; purchased Carna Biosciences
T6 sequence (P52333 822-1111 limits assumed): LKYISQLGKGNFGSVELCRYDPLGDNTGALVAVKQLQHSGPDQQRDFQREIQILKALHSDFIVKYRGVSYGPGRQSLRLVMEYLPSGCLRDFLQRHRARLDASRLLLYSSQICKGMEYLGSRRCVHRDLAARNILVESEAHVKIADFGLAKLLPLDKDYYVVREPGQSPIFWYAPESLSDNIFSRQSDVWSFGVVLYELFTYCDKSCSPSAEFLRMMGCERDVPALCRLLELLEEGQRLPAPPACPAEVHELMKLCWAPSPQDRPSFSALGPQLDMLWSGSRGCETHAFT

KDR = target: T7, KDR (Homo sapiens, UniProt P35968); assay: Kinase inhibition assay, KDR; format: biochemical; conditions: biochemical potency;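 also: purified full-length human KDR, 30 min preincubation with compound, then 1 h reaction with ATP and Ulight-Jak1 peptide substrate, phosphorylation read by Lance Europium antibody detection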
T7 construct: Purified human, full-length SYK, KDR; purchased Carna Biosciences
T7 sequence (P35968 20-1356): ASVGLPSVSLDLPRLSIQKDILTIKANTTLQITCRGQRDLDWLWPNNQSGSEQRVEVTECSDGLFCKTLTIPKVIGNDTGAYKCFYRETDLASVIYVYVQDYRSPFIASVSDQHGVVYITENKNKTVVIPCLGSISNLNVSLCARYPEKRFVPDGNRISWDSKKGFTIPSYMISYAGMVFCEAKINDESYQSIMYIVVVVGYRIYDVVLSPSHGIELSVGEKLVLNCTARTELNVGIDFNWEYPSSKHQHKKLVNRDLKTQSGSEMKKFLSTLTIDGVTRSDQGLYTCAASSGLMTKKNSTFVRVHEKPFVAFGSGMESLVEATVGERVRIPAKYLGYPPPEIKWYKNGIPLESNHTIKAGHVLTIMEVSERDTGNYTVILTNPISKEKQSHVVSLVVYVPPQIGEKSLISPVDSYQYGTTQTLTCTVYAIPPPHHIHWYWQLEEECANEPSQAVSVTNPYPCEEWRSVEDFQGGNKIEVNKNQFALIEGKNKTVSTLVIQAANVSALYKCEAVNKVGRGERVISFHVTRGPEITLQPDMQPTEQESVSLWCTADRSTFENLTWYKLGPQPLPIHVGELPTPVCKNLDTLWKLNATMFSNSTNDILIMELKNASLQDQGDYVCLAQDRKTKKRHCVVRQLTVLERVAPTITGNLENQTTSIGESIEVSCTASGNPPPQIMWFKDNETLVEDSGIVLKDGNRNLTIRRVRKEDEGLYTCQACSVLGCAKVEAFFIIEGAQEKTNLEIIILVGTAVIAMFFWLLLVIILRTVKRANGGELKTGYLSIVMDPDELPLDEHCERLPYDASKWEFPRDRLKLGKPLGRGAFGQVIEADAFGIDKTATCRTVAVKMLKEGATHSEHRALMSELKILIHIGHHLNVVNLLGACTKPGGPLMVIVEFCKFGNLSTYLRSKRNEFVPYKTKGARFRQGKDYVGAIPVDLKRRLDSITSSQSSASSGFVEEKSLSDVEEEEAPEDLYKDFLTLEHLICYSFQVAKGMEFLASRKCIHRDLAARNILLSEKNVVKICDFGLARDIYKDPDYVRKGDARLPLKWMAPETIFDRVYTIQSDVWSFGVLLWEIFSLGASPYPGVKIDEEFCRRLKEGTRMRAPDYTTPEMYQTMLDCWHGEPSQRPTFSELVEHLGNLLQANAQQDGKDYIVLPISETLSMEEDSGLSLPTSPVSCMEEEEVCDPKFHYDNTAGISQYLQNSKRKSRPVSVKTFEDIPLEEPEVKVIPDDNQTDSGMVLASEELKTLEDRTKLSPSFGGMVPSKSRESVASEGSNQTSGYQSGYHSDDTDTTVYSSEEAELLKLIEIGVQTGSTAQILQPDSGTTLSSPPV

EGFR mutant L858R/T790M = target: T8, EGFR mutant L858R/T790M (Homo sapiens, UniProt P00533, L858R/T790M); assay: Kinase inhibition assay, EGFR L858R/T790M; format: biochemical; conditions: read-out: EGFR mutants L858R/T790M;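 also: truncated human enzyme preincubated two hours with compound, then one hour with one millimolar ATP and ULight-PolyGT peptide, Europium-labeled antibody detection, IC50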
T8 construct: truncated human JAK3, EGFR mutants such as del E746-A750; purchased Carna Biosciences
T8 sequence (P00533 669-1210 T790M/L858R limits assumed): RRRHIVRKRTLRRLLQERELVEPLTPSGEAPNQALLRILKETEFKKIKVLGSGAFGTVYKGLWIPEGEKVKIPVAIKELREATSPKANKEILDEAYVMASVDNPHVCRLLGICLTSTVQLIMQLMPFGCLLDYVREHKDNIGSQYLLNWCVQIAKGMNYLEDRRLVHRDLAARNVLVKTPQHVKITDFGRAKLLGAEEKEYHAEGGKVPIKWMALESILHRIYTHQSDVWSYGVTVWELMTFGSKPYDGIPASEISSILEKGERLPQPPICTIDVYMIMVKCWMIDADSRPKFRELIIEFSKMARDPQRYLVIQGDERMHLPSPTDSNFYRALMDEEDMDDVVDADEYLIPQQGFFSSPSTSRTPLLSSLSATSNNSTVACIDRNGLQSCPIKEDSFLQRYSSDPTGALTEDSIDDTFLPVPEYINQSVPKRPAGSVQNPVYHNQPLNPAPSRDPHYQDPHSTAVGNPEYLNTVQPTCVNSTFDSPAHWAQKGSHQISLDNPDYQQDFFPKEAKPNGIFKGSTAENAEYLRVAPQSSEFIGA

[2] = test system: H1975 (EGFR L858R/T790M mutant); assay: Cell viability assay, H1975; format: cell-based; conditions: for pIC50: Homo sapiens, NCI-H1975, cellular potency, 72-hour incubation, ATPLite, read-out: EGFR Mutants H1975; for Selectivity over wildtype, Wildtype vs mutant H2073/H1975 (fold): cellular potency ratio;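 as to all read-outs here: NSCLC cells whose survival relies on EGFR L858R/T790M, exposed 72 h to serially diluted compound, ATP-based viability readout, with the H2073 line (wildtype EGFR dependent) as wildtype comparator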
H2073 (EGFR wildtype) = assay: Cell viability assay, H2073; format: cell-based; conditions: NCI-H2073; cellular potency; 72-hour incubation; ATPLite;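 also: NSCLC cell line whose survival relies on wildtype EGFR, treated with serially diluted compound, cytotoxic effect judged from remaining cell viability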
[3] = test system: PC9 (EGFR del E746-A750 mutant); assay: Cell viability assay, PC9; format: cell-based; conditions: for Selectivity over wildtype, Wildtype vs mutant H2073/PC9 (fold): cellular potency ratio; for pIC50: cellular potency, 72-hour incubation, ATPLite, read-out: EGFR Mutants PC9;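 as to all read-outs here: NSCLC PC9 cells, whose viability relies on EGFR del E746-A750, exposed to serially diluted compound for 72 h at 37 °C, ATPLite read-out, IC50, H2073 as EGFR wildtype line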

SMILES | pIC50 (EGFR mutant T790M) | pIC50 [1] | pIC50 (EGFR mutant L858R) | pIC50 (EGFR mutant Del19/T790M) | pIC50 (SYK) | pIC50 (JAK3) | pIC50 (KDR) | pIC50 (EGFR mutant L858R/T790M) | pIC50 [2] | Selectivity over wildtype, Wildtype vs mutant H2073/H1975 (fold) [2] | pIC50 (H2073 (EGFR wildtype)) | Selectivity over wildtype, Wildtype vs mutant H2073/PC9 (fold) [3] | pIC50 [3]
C=CC(=O)Nc1cc(Nc2nccc(-n3cc(CN4CCC4)c(C)n3)n2)c(OC)cc1-c1ccccc1 [Compound 65, N-(4-(4-(4-(azetidin-1-ylmethyl)-3-methyl-1H-pyrazol-1-yl)pyrimidin-2-ylamino)-5-methoxybiphenyl-2-yl)acrylamide] | 6.00 to 6.70 | > 7.70 | 6.70 to 7.70 | > 7.70 | < 6.00 | 6.70 to 7.70 | < 6.00 | > 7.70 | – | – | – | – | –
C=CC(=O)Nc1cc(Nc2ncc(C)c(-n3cc(CN4C[C@@H](O)[C@@H](O)C4)c(C)n3)n2)c(OC)cc1N1CCOCC1 [Compound 25, N-(5-(4-(4-(((3R,4S)-3,4-dihydroxypyrrolidin-1-yl)methyl)-3-methyl-1H-pyrazol-1-yl)-5-methylpyrimidin-2-ylamino)-4-methoxy-2-morpholinophenyl)acrylamide] | > 7.70 | > 7.70 | > 7.70 | > 7.70 | 6.00 to 6.70 | > 7.70 | < 6.00 | > 7.70 | > 7.70 | 101-200 fold | < 6.00 | >200 fold | > 7.70
C=CC(=O)Nc1cc(Nc2nccc(-n3cc(CN(C)C)c(C)n3)n2)c(OC)cc1N1CCN(C)CC1 [Compound 47, N-(5-(4-(4-((dimethylamino)methyl)-3-methyl-1H-pyrazol-1-yl)pyrimidin-2-ylamino)-4-methoxy-2-(4-methylpiperazin-1-yl)phenyl)acrylamide] | > 7.70 | > 7.70 | > 7.70 | > 7.70 | 6.00 to 6.70 | > 7.70 | < 6.00 | > 7.70 | – | – | – | – | –
C=CC(=O)Nc1cc(Nc2ncc(Cl)c(-n3cc(CN4CCC4)c(C)n3)n2)c(OC)cc1N1CCOCC1 [Compound 50, N-(5-(4-(4-(azetidin-1-ylmethyl)-3-methyl-1H-pyrazol-1-yl)-5-chloropyrimidin-2-ylamino)-4-methoxy-2-morpholinophenyl)acrylamide] | > 7.70 | > 7.70 | 6.70 to 7.70 | > 7.70 | < 6.00 | > 7.70 | < 6.00 | > 7.70 | 6.70 to 7.70 | >200 fold | < 6.00 | 101-200 fold | 6.70 to 7.70
C=CC(=O)Nc1cc(Nc2ncc(C)c(-n3cc(CN4CCC4)cn3)n2)c(OC)cc1N1CCOCC1 [Compound 32, N-(5-(4-(4-(azetidin-1-ylmethyl)-1H-pyrazol-1-yl)-5-methylpyrimidin-2-ylamino)-4-methoxy-2-morpholinophenyl)acrylamide] | > 7.70 | > 7.70 | > 7.70 | > 7.70 | 6.00 to 6.70 | > 7.70 | < 6.00 | > 7.70 | 6.70 to 7.70 | 20-100 fold | < 6.00 | 20-100 fold | 6.00 to 6.70
C=CC(=O)Nc1cc(Nc2ncc(C)c(-n3cc(CN4CCC4)cn3)n2)c(OC)cc1N1CCCOCC1 [Compound 40, N-(5-(4-(4-(azetidin-1-ylmethyl)-1H-pyrazol-1-yl)-5-methylpyrimidin-2-ylamino)-4-methoxy-2-(1,4-oxazepan-4-yl)phenyl)acrylamide] | > 7.70 | > 7.70 | 6.70 to 7.70 | > 7.70 | < 6.00 | > 7.70 | < 6.00 | > 7.70 | – | – | – | – | –
C=CC(=O)Nc1cc(Nc2nccc(-n3cc(CN4CCC4)c(-c4ccc(C)cc4)n3)n2)c(OC)cc1N1CCOCC1 [Compound 82, N-(5-(4-(4-(azetidin-1-ylmethyl)-3-p-tolyl-1H-pyrazol-1-yl)pyrimidin-2-ylamino)-4-methoxy-2-morpholinophenyl)acrylamide] | – | > 7.70 | 6.70 to 7.70 | > 7.70 | < 6.00 | – | < 6.00 | > 7.70 | 6.70 to 7.70 | 101-200 fold | < 6.00 | 101-200 fold | 6.70 to 7.70
C=CC(=O)Nc1cc(Nc2nccc(-n3cc(CN4CCC4)c(C)n3)n2)c(OC)cc1N1CCN(C)CC1 [Compound 17, N-(5-(4-(4-(azetidin-1-ylmethyl)-3-methyl-1H-pyrazol-1-yl)pyrimidin-2-ylamino)-4-methoxy-2-(4-methylpiperazin-1-yl)phenyl)acrylamide] | > 7.70 | > 7.70 | > 7.70 | > 7.70 | 6.00 to 6.70 | > 7.70 | 6.00 to 6.70 | > 7.70 | – | – | – | – | –
C=CC(=O)Nc1cc(Nc2nccc(-n3cc(CN4CCC4)cn3)n2)c(OC)cc1N1CCOCC1 [Compound 34, N-(5-(4-(4-(azetidin-1-ylmethyl)-1H-pyrazol-1-yl)pyrimidin-2-ylamino)-4-methoxy-2-morpholinophenyl)acrylamide] | > 7.70 | > 7.70 | 6.70 to 7.70 | > 7.70 | 6.00 to 6.70 | 6.70 to 7.70 | < 6.00 | > 7.70 | – | – | – | – | –
C=CC(=O)Nc1cc(Nc2ncc(Cl)c(-n3cc(CN4CC(O)C4)c(C)n3)n2)c(OC)cc1N1CCOCC1 [Compound 49, N-(5-(5-chloro-4-(4-((3-hydroxyazetidin-1-yl)methyl)-3-methyl-1H-pyrazol-1-yl)pyrimidin-2-ylamino)-4-methoxy-2-morpholinophenyl)acrylamide] | > 7.70 | > 7.70 | > 7.70 | > 7.70 | 6.00 to 6.70 | > 7.70 | < 6.00 | > 7.70 | – | – | – | – | –
C=CC(=O)Nc1cc(Nc2nccc(-n3cc(CN(C)C)c(C(C)C)n3)n2)c(OC)cc1N1CCOCC1 [Compound 93, N-(5-(4-(4-((dimethylamino)methyl)-3-isopropyl-1H-pyrazol-1-yl)pyrimidin-2-ylamino)-4-methoxy-2-morpholinophenyl)acrylamide] | > 7.70 | > 7.70 | > 7.70 | > 7.70 | < 6.00 | – | – | > 7.70 | > 7.70 | 20-200 fold | 6.00 to 6.70 | 20-200 fold | > 7.70
Cc1cc(Nc2nccc(-n3cc(CN4CC(O)C4)c(C4CC4)n3)n2)cc(C)c1OCCO [Compound 151, 1-((3-cyclopropyl-1-(2-(4-(2-hydroxyethoxy)-3,5-dimethylphenylamino)pyrimidin-4-yl)-1H-pyrazol-4-yl)methyl)azetidin-3-ol, reference compound] | < 6.00 | < 6.00 | 6.70 to 7.70 | 6.00 to 6.70 | 6.00 to 6.70 | – | – | 6.70 to 7.70 | < 6.00 | <20 fold | < 6.00 | <20 fold | < 6.00
